Experimental data reported in article PMC6591174, “The beneficial androgenic action of steroidal aromatase inactivators in estrogen-dependent breast cancer after failure of nonsteroidal drugs” (Cell Death & Disease, 2019).

How the values were obtained:
[1] = system: prostate (P), seminal vesicle (SV), levator ani muscle (LA); experiment: Hershberger assay in orchiectomized rats; format: in vivo, Wistar male rats; settings: doses as in Fig. 5, s.c. once a day, 12 days, castrated rats
Experimental: Fig. 5 Estimation of the androgenic and myotrophic activities of the indicated compounds obtained by the Hershberger Assay. Wistar male rats were orchiectomized (orchi) or sham-operated (intact) under ether anesthesia. After 14 days of endogenous hormonal decline, animals were randomly allocated to treatment and vehicle groups (n = 6). The numbers at the end of the abbreviations correspond to the dose in mg/kg body weight of the animal. Flutamide was given by gavage (10 mg/kg/day). […] Then the animals were treated once a day. The rats were sacrificed after completion of the 12-day treatment. Following removal, wet weights of the prostate (P), seminal vesicle (SV), levator ani muscle (LA) were determined. a Size and shape of P, SV and LA at the end of the treatment period. b, c, and d, influence of treatment with the compounds alone or together with the antiandrogen flutamide at the indicated doses on the weight of the organs (P, SV and LA) of the castrated animals. The mean wet weight is represented by the bars in the graphs. Values are means ± SEM; bars, SEM. *P ≤ 0.05, **P ≤ 0.01 vs. control
The Hershberger assay was performed according to the guidelines of the rodent Hershberger assay. Male Wistar rats (140 g, 5–6 weeks) were orchiectomized (orchi) or sham-operated (intact) under ether anesthesia. After 14 days of endogenous hormonal decline, animals were randomly allocated to treatment and vehicle groups (n = 6); orchi group = orchi rats receiving sham injections; intact group = sham-operated rats receiving sham injections; treatment group = orchi rats receiving drugs injections by subcutaneous. The antiandrogen flutamide given by gavage (10 mg/kg/day). Drugs were dissolved in ethanol and diluted in corn oil. The animals were treated once a day. Rats were sacrificed after completion of the 12-day treatment. Following removal, the wet weights of the P, SV, and LA muscle were determined. The data of tissue weights are presented as mean ± SEM.

[2] = system: CCND1 promoter in MCF-7 cells; experiment: ChIP-qPCR on the CCND1 promoter; format: cell-based, human; settings: 10^-7 M, 2 h
Experimental: Fig. 7 The effect of activated AR on CCND1 expression by changing histone modifications of its promoter. The experimental protocol was as described in “Materials and methods”. a and b The expression of the cyclin D1 protein. Blots were also probed for tubulin (bottom) to verify equal amounts of protein loaded in each lane. The densitometric evaluation is calculated by ImageJ. c The abundance of cyclin D1 mRNA has been detected by real-time reverse transcription-PCR, as described in “Materials and methods”. d–h MCF-7 cells were grown in 10 cm dishes. Confluent cultures (80%) were shifted to PRF for 24 h and then treated with indicated compounds at a concentration of 10^−7 M or left untreated in PRF-CT for 2 h. ChIPs were carried out on serum starved MCF-7 cells as described in “Materials and methods”. Cells were lysed and proteins were precipitated using antibodies against AR (d), H3K4me3 (e), H3K9me3 (f), H3K9ac (g), H3K27ac (h) or rabbit IgG (2 μg/sample each). In control samples (Ig), normal rabbit IgG was used instead of the primary antibodies as control of antibody specificity. Inputs DNA were amplified as loading controls. Five regions of CCND1 promoter were examined by quantitative PCR analysis. The region containing the ARE site was detected by PCR with specific primers (p1-ARE) for antibodies of AR and H3K4me3. Specific primers P4 and p5 were used to investigate the changes in methylation or acetylation of H3K9.
MCF-7 cells were grown in 10 cm dishes. Confluent cultures (80%) were shifted to PRF for 24 h and then treated with various drugs at a concentration of 10^–7 M (as shown in Fig. 8) or left untreated in 5% PRF-CT for 2 h. Following treatment, ChIP assay was performed as described by Morelli et al. and using a simple Chip plus Sonication Chromatin IP kit (Cell Signaling Technology, #56383), following the manufacturer’s protocol. The cells were sonicated 10 times for 10 s at 20% of maximal power (Fisher Sonic Dismembrator) and then treated according to the protocol. Anti-AR (Cat. No. 5153), anti-H3K4me3 (Cat. No. 9751), anti-H3K9me3 (Cat. No. 13969), anti-H3K9ace (Cat. No. 9649), anti-H3K27ace (Cat. No. 8173) or rabbit IgG (Cat. No. 3900) of Cell Signaling Technology antibody were used to precipitate chromatin fragments from cell extracts. We used real-time quantitative PCR (SYBR green) to amplify the DNA fragment in the antibody precipitated DNA and the unprecipitated input DNA to calculate ΔCT values. A specific primer pair was used to amplify 134 bp of the ARE-containing cyclin D1 promoter fragment. For the histone modification antibody, another four pairs of prime locating at 1000 to −2000 bp region from the transcription initiation site of CCND1 were used besides the prime containing ARE. The RQ values (RQ = 2^–ΔCT) are presented and reflect the precipitated DNA as a percentage of the input DNA.

Structure (SMILES) | myotrophic effect (LA) [1] | AR binding to ARE site of CCND1-promoter [2] | H3K4me3 at CCND1 promoter, relative to untreated control cells [2] | H3K9ac at CCND1 promoter [2] | H3K9me3 at CCND1 promoter [2] | H3K27ac at CCND1 promoter [2] | androgenic effect (P and SVs, size and wet weight) [1]
C[C@]12CC[C@H]3[C@@H](CCC4=C(O)C(=O)CC[C@@]43C)[C@@H]1CC[C@@H]2O [4-OHT, 4-hydroxytestosterone] | a little more myotrophic than 17-HEXE | almost as strong as that of DHT | < 20% | decreased | increased | unchanged | –
C=C1C[C@H]2[C@@H]3CC[C@H](O)[C@@]3(C)CC[C@@H]2[C@@]2(C)C=CC(=O)C=C12 [17-HEXE, 17-hydroexemestane] | – | almost as strong as that of DHT | < 20% | decreased | increased | unchanged | a little more androgenic than 4-OHT
C[C@]12CCC(=O)C[C@@H]1CC[C@@H]1[C@@H]2CC[C@]2(C)[C@@H](O)CC[C@@H]12 [DHT, dihydrotestosterone] | – | strong increase | – | – | – | – | –
